Reference: US20060154891A1, “Ready-to-use gemcitabine solutions and gemcitabin concentrates” (priority 2004, published 2006)
Where a name gives a salt, the structure may show the parent alone. Read-outs that look alike come from different tables or passages of the source.

Experiments:
[1] = room temperature; strong, aqueous hydrochloric acid solution, pH approximately 3, reconstituted Gemzar lyophilisate; cited from earlier work
[2] = Concentration at which gemcitabine hydrochloride forms a clear solution at room temperature; format: physicochemical
Protocol: At room temperature, gemcitabine hydrochloride forms a clear solution at a concentration of about 40 mg/milliliter in a strong, aqueous hydrochloric acid solution (pH approximately 3, reconstituted Gemzar® lyophilisate, Eli Lilly) or at a concentration of about 15 mg/mL in an aqueous, weakly alkaline solution having a pH of about 8, and at a concentration of up to 110 mg/mL in an alkaline, ethanolic, aqueous solution with a pH of approximately 10.

[3] = pH range from 3 to 10 investigated; EP 1 479 389 A1; cited from earlier work

| Concentration forming a clear solution ([2]; alkaline, ethanolic, aqueous solution, pH of approximately 10) | Concentration forming a clear solution ([2]; aqueous, weakly alkaline solution, pH of about 8) | Structure (SMILES) | Concentration forming a clear solution [1] | pH described as optimum for stability in aqueous solution [3] |
| --- | --- | --- | --- | --- |
| up to 110 mg/mL | about 15 mg/mL | Nc1ccn([C@@H]2O[C@H](CO)[C@@H](O)C2(F)F)c(=O)n1 [gemcitabine hydrochloride] | about 40 mg/milliliter |  |
|  |  | Nc1ccn([C@@H]2O[C@H](CO)[C@@H](O)C2(F)F)c(=O)n1 [gemcitabine, 2′-deoxy-2′,2′-difluorocytidine] |  | about 8 |
